Measurements from ChEMBL document CHEMBL6103628, “Structural Optimization of Covalent Inhibitors for Deubiquitinase ChlaDUB1 of Chlamydia trachomatis as Antibiotic Agents” (J Med Chem, 2025).
Converted amounts (≈) assume the structure as drawn. The source made the active and inactive calls. No cut-off for these calls is given here.

Legend:
[1] = target: T1, Deubiquitinase and deneddylase Dub1 (Chlamydia trachomatis serovar L2 (strain ATCC VR-902B / DSM 19102 /434/Bu), UniProt B0B9A0); test: Inhibition of recombinant Chlamydia trachomatis DUB1 (130 to 401 residues) using Ub-Rh110Gly as fluorogenic substrate incubated for 60 mins by enzymatic analysis
T1 sequence (B0B9A0 whole entry): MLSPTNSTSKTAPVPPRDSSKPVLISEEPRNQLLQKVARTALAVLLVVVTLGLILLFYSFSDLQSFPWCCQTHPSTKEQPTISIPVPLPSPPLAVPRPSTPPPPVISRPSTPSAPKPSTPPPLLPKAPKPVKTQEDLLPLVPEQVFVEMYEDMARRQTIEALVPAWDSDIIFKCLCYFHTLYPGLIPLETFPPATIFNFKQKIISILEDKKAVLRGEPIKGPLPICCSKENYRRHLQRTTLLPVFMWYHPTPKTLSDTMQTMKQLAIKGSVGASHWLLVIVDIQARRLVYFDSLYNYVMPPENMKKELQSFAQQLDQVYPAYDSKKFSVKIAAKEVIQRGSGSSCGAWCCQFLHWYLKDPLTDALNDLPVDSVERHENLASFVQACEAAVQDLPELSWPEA

[2] = system: HEp-2; test: Cytotoxicity against human HEp-2 cells assessed as reduction in cell viability at 4 to 256 ug/mL measured after 20 hrs by XTT assay; format: toxicity, cell-based; conditions: hep-2, 20 h, dose 4-256 µg/ml
[3] = system: HeLa; test: Cytotoxicity against human HeLa cells assessed as cell viability at 4 to 256 ug/mL measured after 20 hrs by XTT assay; format: toxicity, cell-based; conditions: dose 4-256 µg/ml
[4] = target: T2, Deubiquitinase and deneddylase Dub1 (Chlamydia trachomatis serovar L2 (strain ATCC VR-902B / DSM 19102 /434/Bu)) (UniProt B0B9A0); test: Inhibition of recombinant Chlamydia trachomatis DUB1 (130 to 401 residues) using Ub-Rh110Gly as fluorogenic substrate incubated for 60 mins by enzymatic analysis relative to control
T2 sequence (whole entry): T1 sequence (B0B9A0 whole entry)

[5] = target: T1, Deubiquitinase and deneddylase Dub1; test: Inhibition of recombinant Chlamydia trachomatis DUB1 (130 to 401 residues) using Ub-Rh110Gly as fluorogenic substrate incubated for 2 mins by enzymatic analysis
[6] = target: T1, Deubiquitinase and deneddylase Dub1; test: Inhibition of recombinant Chlamydia trachomatis DUB1 (130 to 401 residues) using Ub-Rh110Gly as fluorogenic substrate incubated for 20 mins by enzymatic analysis
[7] = target: T1, Deubiquitinase and deneddylase Dub1; test: Binding affinity to recombinant Chlamydia trachomatis DUB1 (130 to 401 residues) assessed as inhibition constant using Ub-Rh110Gly as fluorogenic substrate incubated for 360 mins by Michaelis-Menten analysis
[8] = system: Chlamydia trachomatis; test: Anti-chlamydial activity against Chlamydia trachomatis serovar L2 infected in human HEp-2 cells assessed as inhibition of chlamydial inclusion incubated for 16 hrs by Alexa488/DAPI staining based immunofluorescence assay; format: functional, organism-based; conditions: serovar L2, HEp-2, 16 h
[9] = target: T2, Deubiquitinase and deneddylase Dub1 (Chlamydia trachomatis serovar L2 (strain ATCC VR-902B / DSM 19102 /434/Bu)); test: Inhibition of recombinant Chlamydia trachomatis DUB1 (130 to 401 residues) using Ub-Rh110Gly as fluorogenic substrate at highest concentration incubated for 60 to 360 mins by enzymatic analysis; conditions: time 60-360 min
[10] = target: T2, Deubiquitinase and deneddylase Dub1 (Chlamydia trachomatis serovar L2 (strain ATCC VR-902B / DSM 19102 /434/Bu)); test: Non-covalent inhibition of recombinant Chlamydia trachomatis DUB1 (130 to 401 residues) using Ub-Rh110Gly as fluorogenic substrate incubated for 10 to 360 mins by enzymatic analysis; conditions: time 10-360 min
[11] = target: T2, Deubiquitinase and deneddylase Dub1 (Chlamydia trachomatis serovar L2 (strain ATCC VR-902B / DSM 19102 /434/Bu)); test: Covalent inhibition of recombinant Chlamydia trachomatis DUB1 (130 to 401 residues) using Ub-Rh110Gly as fluorogenic substrate incubated for 10 to 360 mins by enzymatic analysis; conditions: time 10-360 min
[12] = target: T1, Deubiquitinase and deneddylase Dub1; test: Inhibition of recombinant Chlamydia trachomatis DUB1 (130 to 401 residues) using Ub-Rh110Gly as fluorogenic substrate incubated for 360 mins by enzymatic analysis
[13] = target: T2, Deubiquitinase and deneddylase Dub1 (Chlamydia trachomatis serovar L2 (strain ATCC VR-902B / DSM 19102 /434/Bu)); test: Binding affinity to recombinant Chlamydia trachomatis DUB1 (130 to 401 residues) assessed as inactivation rate constant (Kinact) using Ub-Rh110Gly as fluorogenic substrate incubated for 360 mins by Michaelis-Menten analysis
[14] = target: T2, Deubiquitinase and deneddylase Dub1 (Chlamydia trachomatis serovar L2 (strain ATCC VR-902B / DSM 19102 /434/Bu)); test: Binding affinity to recombinant Chlamydia trachomatis DUB1 (130 to 401 residues) assessed as Kinact/Ki ratio using Ub-Rh110Gly as fluorogenic substrate incubated for 360 mins by Michaelis-Menten analysis
[15] = target: T2, Deubiquitinase and deneddylase Dub1 (Chlamydia trachomatis serovar L2 (strain ATCC VR-902B / DSM 19102 /434/Bu)); test: Inhibition of recombinant Chlamydia trachomatis DUB1 (130 to 401 residues) using Ub-Rh110Gly as fluorogenic substrate at 100 to 500 uM incubated for 20 to 240 mins by enzymatic analysis relative to control; conditions: dose 100-500 µM, time 20-240 min

| IC50 ([1]; read-out: IC50) | SMILES | further results |
| --- | --- | --- |
| 5.7 µM | COc1ccc2[nH]cc(CNC(=O)c3ccnc(C#N)n3)c2c1 |  |
| 184 µM | N#Cc1nccc(C(=O)NCc2c[nH]c3cccc(OCc4ccccc4)c23)n1 |  |
| 2.9 µM | N#Cc1nccc(C(=O)NCc2c[nH]c3ccc(OCc4ccccc4)cc23)n1 | Activity [2]: Toxic; Activity [3]: Non-toxic; inhibition [4]: 100% |
| 47 µM | Cn1ccc(NC(=O)c2ccnc(C#N)n2)n1 | IC50 ([1]; read-out: pIC50 (converted)): 45.7 µM |
|  | N#Cc1nc(C(=O)NCc2c[nH]c3ccccc23)co1 | IC50 [5]: 16 µM; IC50 [6]: 3.1 µM; Ki [7]: 117 µM; IC50 [8]: 32.2 µg/mL (≈ 121 µM); Activity [2]: Toxic; Activity [3]: Toxic |
| 182 µM | N#Cc1nccc(C(=O)NCc2c[nH]c3c(OCc4ccccc4)cccc23)n1 |  |
| 175 µM | N#Cc1nccc(NC(=O)Cc2c[nH]c3ccccc23)n1 |  |
| 10 µM | N#Cc1ncc(C(=O)NCc2ccc(C(=O)NCc3ccccc3)c3ccccc23)cn1 | inhibition [9]: Active; Complete Inhibition Was Not Achieved; inhibition [10]: Active |
| 15 µM | N#Cc1nccc(C(=O)NCc2c[nH]c3cc(OCc4ccccc4)ccc23)n1 |  |
| 22 µM | N#Cc1ncc(C(=O)NCc2cccc(C(=O)NCc3ccccc3)c2)cn1 |  |
| 15 µM | Cn1cc(CNC(=O)c2ccnc(C#N)n2)c2ccccc21 |  |
| 27 µM | N#Cc1ncc(C(=O)NCc2ccc(C(=O)NCc3ccccc3)cc2)cn1 | inhibition [11]: Active |
| 23 µM | N#Cc1nccc(C(=O)Nc2n[nH]c3ccccc23)n1 | inhibition [4]: 100% |
| 122 µM | COc1ccccc1CNC(=O)[C@H]1CC[C@H](CNC(=O)c2cnc(C#N)nc2)CC1 |  |
| 6.1 µM | N#Cc1nccc(C(=O)NCc2c[nH]c3ccccc23)n1 | IC50 [12]: 1.7 µM; Kinact [13]: 0.422 min⁻¹; Ki [7]: 314 µM; Ratio [14]: 22.4 M⁻¹ s⁻¹ |
| 93 µM | N#Cc1ncc(NC(=O)Cc2c[nH]c3ccccc23)cn1 |  |
| 23 µM | N#Cc1nccc(C(=O)Nc2cc[nH]n2)n1 |  |
| 77 µM | N#Cc1ncc(C(=O)N2CCc3cc(C(=O)NCc4ccccc4)ccc3C2)cn1 |  |
| 19 µM | N#Cc1nccc(C(=O)NCc2n[nH]c3ccccc23)n1 | inhibition [4]: 100% |
| 23 µM | N#Cc1nccc(C(=O)NCc2ccn(C(=O)Cc3ccccc3)n2)n1 | inhibition [11]: Active; inhibition [15]: 100% |
| 23 µM | N#Cc1nccc(C(=O)NCCc2c[nH]c3ccccc23)n1 |  |
| 7.5 µM | COc1ccc2c(CNC(=O)c3ccnc(C#N)n3)c[nH]c2c1 |  |
